Results taken from patent publication US20240189257A1, “COMPOSITIONS AND METHODS FOR MANAGING NEPHROPATHY” (SAMI-SABINSA GROUP LIMITED, priority 2021, published 2024).

Test system: High fat diet + STZ + DOCA (diabetic nephropathy)
Assay: Renal lipids (triglyceride, total cholesterol, free fatty acid, phospholipids) by automated analyzer in high fat diet + STZ + DOCA model
Format: in vivo, rats
Protocol: After 1 week of adaptive feeding, the rats were randomly divided into normal control and experimental groups. The experimental group received high-fat diet (consisting of 70% standard laboratory chow, 15% carbohydrates, 10% lard, and 5% yolk powder) to establish an insulin resistance model, while the normal control group receive standard chow. After 4 weeks of high-fat diet feeding, the experimental group rats were induced with diabetes by a single intraperitoneal injection of STZ (35 mg/kg, dissolved in 0.01 M sodium citrate buffer, pH 4.4), while the Normal group rats were injected with the same dose of citrate buffer. At the 7th day after STZ injection, the blood glucose levels of rats were measured to confirm the successful establishment of the model. Rats with blood glucose level ≥250 mg/dl is indicative of the establishment of the disease and selected for further pharmacological studies. All rats were fed their respective diets until the end of the study. Rats were also given 1% NaCl (salt) to drink and on day 28, 0.75 μg […] (DOCA) was subcutaneously infused. Blood pressure and urinary albumin were measured to establish renal hypertension.
All the experimental rats were assigned to the specific treatment group and test drugs were administered orally once daily between 9:00 and 11:00 a.m., continuously for 12 weeks.
At the end of the treatment, all rats were be housed in individual metabolic cages for 24 h to collect urine samples and then sacrifice. Urine samples were centrifuged at 4000×g for 5 min to separate the supernatant. Blood samples are acquired by a small puncture to retro orbital plexus and centrifuged at 4000×g for 10 min at 4° C. to separate the plasma for subsequent experiments. Serum was also separated from the blood for analysis in which anti-coagulant was not added. Thereafter, the kidneys were immediately harvested and weighed. The right kidneys were washed in ice-cold saline solution and fixed in 4% neutral formaldehyde solution for histological examination, whereas the renal cortex of the left kidneys was rinsed with cold isotonic saline and subsequently stored at −70° C. until biochemical estimations.
Measurement of renal lipids viz. Triglyceride, Total cholesterol, Free Fatty Acid, Phospholipids was also done by automated analyzer.

[1] = decrease against High fat diet + STZ + DOCA group
[2] = renal lipids, high fat diet + STZ + DOCA rats, p.o. 12 weeks

Compound: CN(C)C(=N)N=C(N)N [Metformin]
- Free fatty acids, % decrease (↓) [1]: 47.5%↓
- Phospholipids, % decrease (↓) [1]: 55.2%↓
- Total Cholesterol, % decrease (↓) [1]: 30%↓
- Triglycerides, % decrease (↓) [1]: 17.2%↓
- Free fatty acids [2]: 25.34 ± 1.88 mg/mL
- Phospholipids [2]: 4.33 ± 0.023 mg/mL
- Total Cholesterol [2]: 40.33 ± 3.50 mg/dL
- Triglycerides [2]: 122.67 ± 3.56 mg/mL
